Experimental data reported in US10300060B2, “Trk-inhibiting compound” (ONO PHARMACEUTICAL CO., LTD., priority 2013, dated 2019).

Key:
[1] = target: b-Raf (Homo sapiens (Human), UniProt P15056); test: Enzyme-inhibiting activity test of kinases other than Trk (selectivity experiment): b-Raf; format: biochemical; conditions: concentration of 3 μM; read-out: Inhibition rate (%) b-Raf
Procedure: (§1) A test substance (the present compound) was dissolved in dimethylsulfoxide to prepare a 100-fold concentration of the test concentration, 3 μM. The solution was further diluted to 25-fold with an assay buffer (20 mM HEPES, 0.01% Triton X-100, 2 mM DTT, pH 7.5) to obtain a test substance solution. In a similar manner a positive control substance solution was prepared with a positive control substance.
(§2) A 4-times concentration solution (5 μL) of the test substance prepared with the assay buffer, 5 μL of a 4-times concentration solution of substrate/ATP/metal (Mg) and 10 μL of a 2-times concentration solution of kinase were mixed in a well of a polypropylene 384-well plate and allowed to react at room temperature for 1 hour. The reaction was terminated by adding 60 μL of a Termination Buffer (QuickScout Screening Assist MSA; Carna Biosciences). The substrate peptide and the phosphorylated peptide in the reaction solution were separated and quantified. The kinase reaction was assessed from the product ratio (P/(P+S)) calculated from the height (S) of the peak of the substrate peptide and the height (P) of the peak of the phosphorylated peptide. Other kinases used in the kinase selectivity experiments were, for example, b-Raf and KDR. The following Table 3 indicates substrates, substrate concentrations, ATP concentrations and positive control substances used in respective kinase enzyme inhibition activity tests.

[2] = target: KDR (Homo sapiens (Human), UniProt P35968); test: Enzyme-inhibiting activity test of kinases other than Trk (selectivity experiment): KDR; format: biochemical; conditions: concentration of 3 μM; read-out: Inhibition rate (%) KDR
Sequence of KDR (P35968 20-1356, species assumed): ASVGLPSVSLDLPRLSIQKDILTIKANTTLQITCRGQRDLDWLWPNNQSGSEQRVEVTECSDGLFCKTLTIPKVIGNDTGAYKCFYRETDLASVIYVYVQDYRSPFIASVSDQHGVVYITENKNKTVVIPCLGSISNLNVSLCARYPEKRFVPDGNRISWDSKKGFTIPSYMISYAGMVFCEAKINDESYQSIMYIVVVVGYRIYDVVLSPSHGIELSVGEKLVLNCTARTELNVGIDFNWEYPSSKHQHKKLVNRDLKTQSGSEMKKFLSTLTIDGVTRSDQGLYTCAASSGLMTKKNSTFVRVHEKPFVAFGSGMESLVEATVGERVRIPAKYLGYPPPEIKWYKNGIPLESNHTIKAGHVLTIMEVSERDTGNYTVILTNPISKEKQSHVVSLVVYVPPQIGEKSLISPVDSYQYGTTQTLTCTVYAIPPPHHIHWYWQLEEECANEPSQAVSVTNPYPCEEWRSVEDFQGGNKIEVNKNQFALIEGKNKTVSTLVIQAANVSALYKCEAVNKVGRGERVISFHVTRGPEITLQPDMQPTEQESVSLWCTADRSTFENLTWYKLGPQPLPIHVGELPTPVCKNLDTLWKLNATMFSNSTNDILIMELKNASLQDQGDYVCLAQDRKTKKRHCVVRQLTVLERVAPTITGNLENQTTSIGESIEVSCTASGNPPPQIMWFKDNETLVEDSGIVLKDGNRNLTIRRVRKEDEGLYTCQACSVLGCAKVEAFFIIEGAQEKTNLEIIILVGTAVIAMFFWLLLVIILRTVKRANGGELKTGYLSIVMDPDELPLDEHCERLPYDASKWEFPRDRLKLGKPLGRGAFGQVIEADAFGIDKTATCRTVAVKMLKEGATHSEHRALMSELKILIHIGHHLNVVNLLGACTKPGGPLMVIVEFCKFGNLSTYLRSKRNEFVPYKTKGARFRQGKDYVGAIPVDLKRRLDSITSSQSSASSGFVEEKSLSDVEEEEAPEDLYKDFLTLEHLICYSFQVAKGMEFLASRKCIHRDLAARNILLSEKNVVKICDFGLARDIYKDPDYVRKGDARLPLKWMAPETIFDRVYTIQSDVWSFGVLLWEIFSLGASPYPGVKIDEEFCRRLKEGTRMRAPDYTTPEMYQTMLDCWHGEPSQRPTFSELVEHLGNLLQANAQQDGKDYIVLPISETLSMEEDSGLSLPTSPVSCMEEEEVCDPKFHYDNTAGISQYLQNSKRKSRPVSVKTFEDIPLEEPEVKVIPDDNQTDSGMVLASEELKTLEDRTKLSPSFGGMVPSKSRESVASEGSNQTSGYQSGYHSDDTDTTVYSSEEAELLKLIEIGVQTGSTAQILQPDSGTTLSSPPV
Procedure: as §1, §2

[3] = tested on: sodium monoiodoacetate-induced model rats; test: Analgesic effect on sodium monoiodoacetate-induced model rats; format: in vivo, rat; conditions: MIA-induced model rats, test substance orally twice a day day 14 to 23, day 24 3 hours before measurement, right hind limb weight load ratio
[4] = experiment with morphine as positive control
[5] = experiment with tramadol as positive control

Sequence of b-Raf (P15056 whole entry, species assumed): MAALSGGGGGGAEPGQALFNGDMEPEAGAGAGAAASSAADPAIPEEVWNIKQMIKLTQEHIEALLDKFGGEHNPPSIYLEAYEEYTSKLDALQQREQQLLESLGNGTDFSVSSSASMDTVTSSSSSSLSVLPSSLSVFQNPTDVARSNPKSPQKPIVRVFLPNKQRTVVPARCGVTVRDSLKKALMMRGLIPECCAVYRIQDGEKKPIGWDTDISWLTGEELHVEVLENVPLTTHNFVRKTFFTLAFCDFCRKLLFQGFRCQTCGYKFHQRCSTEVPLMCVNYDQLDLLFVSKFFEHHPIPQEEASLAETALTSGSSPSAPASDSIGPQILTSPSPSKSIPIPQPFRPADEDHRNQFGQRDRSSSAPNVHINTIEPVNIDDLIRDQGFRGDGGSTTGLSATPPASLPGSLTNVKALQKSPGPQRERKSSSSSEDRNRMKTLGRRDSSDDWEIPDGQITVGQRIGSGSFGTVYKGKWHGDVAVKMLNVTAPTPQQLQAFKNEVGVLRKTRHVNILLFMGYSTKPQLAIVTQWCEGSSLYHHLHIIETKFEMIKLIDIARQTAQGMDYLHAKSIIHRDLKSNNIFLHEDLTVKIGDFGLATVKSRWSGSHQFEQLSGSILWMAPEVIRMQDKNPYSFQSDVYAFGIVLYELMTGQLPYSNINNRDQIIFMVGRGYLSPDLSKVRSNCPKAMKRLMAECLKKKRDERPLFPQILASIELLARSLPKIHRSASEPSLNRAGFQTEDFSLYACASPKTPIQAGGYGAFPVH

Row | Structure (SMILES) | inhibition at 3 µM [1] [%] | inhibition at 3 µM [2] [%] | Percent improvement (%) [3, 4] [%] | Percent improvement (%) [3, 5] [%]
1 | CN(C)c1ccn2ncc(-c3ccc(Oc4ncc(NC(=O)Nc5cc(C(F)(F)F)ccc5-c5ccnn5C)cn4)cc3)c2n1 [Example 21-51, 1-(2-{4-[5-(dimethylamino)pyrazolo[1,5-a]pyrimidin-3-yl]phenoxyl}-5-pyrimidinyl)-3-[2-(1-methyl-1H-pyrazol-5-yl)-5-(trifluoromethyl)phenyl]urea] | 49 | 9 | 68 | 
2 | Nc1ncc(C(F)(F)F)cc1-c1ccc(Oc2ncc(NC(=O)Nc3cc(C(F)(F)F)ccc3-n3ccc(C(F)(F)F)n3)cn2)cc1 [Example 15-52, 1-(2-{4-[2-amino-5-(trifluoromethyl)-3-pyridinyl]phenoxyl}-5-pyrimidinyl)-3-{5-(trifluoromethyl)-2-[3-(trifluoromethyl)-1H-pyrazol-1-yl]phenyl}urea] | 20 | 0 | 60 | 
3 | Nc1ncc(Cl)cc1-c1ccc(Oc2ncc(NC(=O)Nc3ccc(C(F)(F)F)cc3C(F)(F)F)cn2)cc1 [Example 15-77, 1-{2-[4-(2-amino-5-chloro-3-pyridinyl)phenoxy]-5-pyrimidinyl}-3-[2,4-bis(trifluoromethyl)phenyl]urea] | 32 | 0 | 55 | 
4 | CN(C)c1ccn2ncc(-c3ccc(Oc4ncc(NC(=O)Nc5cc(C(F)(F)F)ccc5-c5cccnc5)cn4)cc3)c2n1 [Example 21-37] | 50 | 16 | 67 | 
5 | Nc1ncc(Cl)cc1-c1ccc(Oc2ncc(NC(=O)Nc3ccc(C(F)(F)F)cc3Cl)cn2)cc1 [Example 15-6, 1-(2-(4-(2-amino-5-chloropyridin-3-yl)phenoxy)pyrimidin-5-yl)-3-(2-chloro-4-(trifluoromethyl)phenyl)urea] | 37 | 0 |  | 51
6 | CN(C)c1ccn2ncc(-c3ccc(Oc4ncc(NC(=O)Nc5cc(C(F)(F)F)ccc5-c5ccccc5)cn4)cc3)c2n1 [Example 21-70, 1-(2-{4-[5-(dimethylamino)pyrazolo[1,5-a]pyrimidin-3-yl]phenoxyl}-5-pyrimidinyl)-3-[4-(trifluoromethyl)-2-biphenylyl]urea] | 19 | 0 | 61 | 
7 | Nc1ncc(F)cc1-c1ccc(Oc2ncc(NC(=O)Nc3cc(C(F)(F)F)ccc3-c3cccnc3)cn2)cc1 [Example 14-6, 1-(2-(4-(2-amino-5-fluoropyridin-3-yl)phenoxy)pyrimidin-5-yl)-3-(2-(pyridin-3-yl)-5-(trifluoromethyl)phenyl)urea] | 45 | 1.7 | 53 | 
8 | Cc1cn(-c2ccc(C(F)(F)F)cc2NC(=O)Nc2cnc(Oc3ccc(-c4cc(Cl)cnc4N)cc3)nc2)nn1 [Example 8-1, 1-(2-(4-(2-amino-5-chloropyridin-3-yl)phenoxy)pyrimidin-5-yl)-3-(2-(4-methyl-1H-1,2,3-triazol-1-yl)-5-(trifluoromethyl)phenyl)urea] | 6.5 | 0 |  | 60
9 | CS(=O)(=O)c1ccc(C(F)(F)F)cc1NC(=O)Nc1cnc(Oc2ccc(-c3cc(Cl)cnc3N)cc2)nc1 [Example 15-104, 1-{2-[4-(2-amino-5-chloro-3-pyridinyl)phenoxy]-5-pyrimidinyl}-3-[2-(methylsulfonyl)-5-(trifluoromethyl)phenyl]urea] | 53 | 18 | 54 | 
